Measurements reported in ChEMBL document CHEMBL1128271, “Computer-aided molecular modeling, synthesis, and biological evaluation of 8-(benzyloxy)-2-phenylpyrazolo[4,3-c]quinoline as a novel benzodiazepine receptor agonist ligand” (J Med Chem, 1995).

These compounds were tested against GABA-A receptor; anion channel (assay: Inhibition of [3H]-Ro- 15-1788 binding to GABA-A benzodiazepine receptor in rat brain membrane).
Format: cell membranes

| Compound | IC50 |
| --- | --- |
| O=c1c2cnc3ccc(OCc4ccccc4)cc3c2[nH]n1-c1ccc(Cl)cc1 | 0.0523 µM |
| O=c1c2cnc3cccc(O)c3c2[nH]n1-c1ccccc1 | 0.00074 µM |
| O=c1c2cnc3ccc(OCc4ccccc4)cc3c2[nH]n1-c1ccccc1 | 0.0037 µM |

Further lines, results first:

| IC50 | Compound |
| --- | --- |
| > 1 µM | O=c1c2cnc3c(OCc4ccccc4)cccc3c2[nH]n1-c1ccccc1 |
| 0.00068 µM | COc1cccc2ncc3c(=O)n(-c4ccccc4)[nH]c3c12 |
| > 1 µM | O=c1c2cnc3cc(OCc4ccccc4)ccc3c2[nH]n1-c1ccccc1 |
| > 1000 µM | O=c1c2cnc3cccc(OCc4ccccc4)c3c2[nH]n1-c1ccccc1 |
